How the values were obtained:
[1] = target: T1, Kappa-type opioid receptor (Homo sapiens, UniProt P41145); assay: GPCRScan assay: inhibition of KOR; design: radioligand conc. used [nm] 0.6 – 1.2, parental cells stable HEK
[2] = target: Histamine H2 receptor (Homo sapiens) (UniProt P25021); conditions: Compound concentration 10.0 uM
[3] = target: Sigma non-opioid intracellular receptor 1 (Homo sapiens) (UniProt Q99720); conditions: Compound concentration 10.0 uM
[4] = target: 5-hydroxytryptamine receptor 2B (Homo sapiens, UniProt P41595); conditions: Compound concentration 10.0 uM
5-hydroxytryptamine receptor 2B, sequence (P41595 whole entry): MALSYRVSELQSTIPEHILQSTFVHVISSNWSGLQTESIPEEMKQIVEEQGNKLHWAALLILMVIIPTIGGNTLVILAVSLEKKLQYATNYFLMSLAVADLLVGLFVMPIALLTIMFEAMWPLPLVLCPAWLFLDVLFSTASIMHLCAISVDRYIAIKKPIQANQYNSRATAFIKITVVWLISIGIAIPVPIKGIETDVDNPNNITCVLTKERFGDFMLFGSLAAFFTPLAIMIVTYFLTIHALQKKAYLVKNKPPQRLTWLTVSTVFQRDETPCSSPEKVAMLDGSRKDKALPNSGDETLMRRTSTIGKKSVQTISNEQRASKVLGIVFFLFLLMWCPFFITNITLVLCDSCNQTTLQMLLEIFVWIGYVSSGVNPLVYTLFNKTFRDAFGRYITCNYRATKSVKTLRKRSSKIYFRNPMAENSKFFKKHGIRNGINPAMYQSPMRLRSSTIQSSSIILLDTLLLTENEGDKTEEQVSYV

[5] = target: Histamine H3 receptor (Homo sapiens) (UniProt Q9Y5N1); conditions: Compound concentration 10.0 uM
Histamine H3 receptor (Homo sapiens), sequence (Q9Y5N1 whole entry): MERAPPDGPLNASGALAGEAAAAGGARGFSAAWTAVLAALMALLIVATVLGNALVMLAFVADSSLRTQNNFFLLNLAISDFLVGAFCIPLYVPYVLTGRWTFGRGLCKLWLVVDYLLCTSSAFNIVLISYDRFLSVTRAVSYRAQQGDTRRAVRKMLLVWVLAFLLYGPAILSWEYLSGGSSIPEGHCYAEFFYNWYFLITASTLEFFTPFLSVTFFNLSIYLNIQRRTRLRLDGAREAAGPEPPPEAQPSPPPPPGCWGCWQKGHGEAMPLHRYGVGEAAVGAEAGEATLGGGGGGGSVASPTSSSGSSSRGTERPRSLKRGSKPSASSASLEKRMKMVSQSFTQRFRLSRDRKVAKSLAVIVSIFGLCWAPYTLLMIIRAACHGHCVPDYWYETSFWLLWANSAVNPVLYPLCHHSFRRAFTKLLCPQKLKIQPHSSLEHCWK

[6] = target: Delta-type opioid receptor (Homo sapiens) (UniProt P41143); conditions: Compound concentration 10.0 uM
[7] = target: 5-hydroxytryptamine receptor 1E (Homo sapiens) (UniProt P28566); conditions: Compound concentration 10.0 uM
[8] = target: 5-hydroxytryptamine receptor 7 (Homo sapiens) (UniProt P34969); conditions: Compound concentration 10.0 uM
[9] = target: 5-hydroxytryptamine receptor 1D (Homo sapiens, UniProt P28221); conditions: Compound concentration 10.0 uM
D(3) dopamine receptor = D(3) dopamine receptor (Homo sapiens, UniProt P35462); conditions: Compound concentration 10.0 uM
D(3) dopamine receptor, sequence (P35462 whole entry): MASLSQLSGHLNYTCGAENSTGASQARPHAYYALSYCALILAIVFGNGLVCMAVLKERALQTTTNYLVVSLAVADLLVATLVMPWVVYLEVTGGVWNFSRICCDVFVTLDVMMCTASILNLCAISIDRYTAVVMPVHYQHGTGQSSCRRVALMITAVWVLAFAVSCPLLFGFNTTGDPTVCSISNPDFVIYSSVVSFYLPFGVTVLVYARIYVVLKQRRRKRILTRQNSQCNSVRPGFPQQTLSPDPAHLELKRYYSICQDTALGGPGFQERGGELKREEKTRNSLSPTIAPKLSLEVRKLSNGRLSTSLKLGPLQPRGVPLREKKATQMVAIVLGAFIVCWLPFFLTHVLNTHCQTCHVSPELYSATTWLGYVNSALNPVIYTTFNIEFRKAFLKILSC

[10] = target: Histamine H1 receptor (Homo sapiens) (UniProt P35367); conditions: Compound concentration 10.0 uM
[11] = target: Sodium-dependent noradrenaline transporter (Homo sapiens) (UniProt P23975); conditions: Compound concentration 10.0 uM
Sodium-dependent noradrenaline transporter (Homo sapiens), sequence (P23975 whole entry): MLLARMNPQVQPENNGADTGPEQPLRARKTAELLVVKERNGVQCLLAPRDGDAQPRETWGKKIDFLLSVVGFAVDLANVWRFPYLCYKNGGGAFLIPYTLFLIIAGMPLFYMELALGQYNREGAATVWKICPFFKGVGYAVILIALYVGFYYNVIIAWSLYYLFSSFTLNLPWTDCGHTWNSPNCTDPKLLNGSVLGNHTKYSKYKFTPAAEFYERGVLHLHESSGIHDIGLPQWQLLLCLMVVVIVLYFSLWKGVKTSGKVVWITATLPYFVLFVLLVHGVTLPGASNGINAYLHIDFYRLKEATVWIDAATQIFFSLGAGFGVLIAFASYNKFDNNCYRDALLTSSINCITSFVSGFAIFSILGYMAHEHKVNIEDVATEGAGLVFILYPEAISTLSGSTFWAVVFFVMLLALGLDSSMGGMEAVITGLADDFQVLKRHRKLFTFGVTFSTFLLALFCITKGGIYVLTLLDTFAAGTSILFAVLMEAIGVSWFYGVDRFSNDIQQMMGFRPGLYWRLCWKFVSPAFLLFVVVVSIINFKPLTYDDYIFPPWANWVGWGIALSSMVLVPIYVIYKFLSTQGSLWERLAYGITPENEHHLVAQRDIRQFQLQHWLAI

[12] = target: 5-hydroxytryptamine receptor 2A (Homo sapiens) (UniProt P28223); conditions: Compound concentration 10.0 uM
[13] = target: Alpha-2B adrenergic receptor (Homo sapiens) (UniProt P18089); conditions: Compound concentration 10.0 uM
[14] = target: 5-hydroxytryptamine receptor 2C (Homo sapiens) (UniProt P28335); conditions: Compound concentration 10.0 uM
[15] = target: Beta-3 adrenergic receptor (Homo sapiens) (UniProt P13945); conditions: Compound concentration 10.0 uM
[16] = target: Muscarinic acetylcholine receptor M2 (Homo sapiens) (UniProt P08172); conditions: Compound concentration 10.0 uM
[17] = target: 5-hydroxytryptamine receptor 3A (Homo sapiens) (UniProt P46098); conditions: Compound concentration 10.0 uM
5-hydroxytryptamine receptor 3A (Homo sapiens), sequence (P46098 whole entry): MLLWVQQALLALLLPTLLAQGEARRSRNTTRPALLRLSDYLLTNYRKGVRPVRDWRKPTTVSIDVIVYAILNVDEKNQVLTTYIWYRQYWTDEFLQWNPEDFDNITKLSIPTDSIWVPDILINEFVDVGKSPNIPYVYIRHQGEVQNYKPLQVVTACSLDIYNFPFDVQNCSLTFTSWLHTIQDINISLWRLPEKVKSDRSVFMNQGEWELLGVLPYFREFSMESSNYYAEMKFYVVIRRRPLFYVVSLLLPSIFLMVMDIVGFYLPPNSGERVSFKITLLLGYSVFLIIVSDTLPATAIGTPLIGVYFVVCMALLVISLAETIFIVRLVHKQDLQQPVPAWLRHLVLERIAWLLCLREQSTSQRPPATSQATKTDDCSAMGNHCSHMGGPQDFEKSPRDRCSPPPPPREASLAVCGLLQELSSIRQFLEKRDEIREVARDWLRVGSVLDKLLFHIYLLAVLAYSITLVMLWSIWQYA

Rattus norvegicus = species: Rattus norvegicus; conditions: Compound concentration 10.0 uM
[18] = target: Beta-2 adrenergic receptor (Homo sapiens) (UniProt P07550); conditions: Compound concentration 10.0 uM
[19] = target: Beta-1 adrenergic receptor (Homo sapiens) (UniProt P08588); conditions: Compound concentration 10.0 uM
[20] = target: D(2) dopamine receptor (Homo sapiens) (UniProt P14416); conditions: Compound concentration 10.0 uM
[21] = target: 5-hydroxytryptamine receptor 5A (Homo sapiens) (UniProt P47898); conditions: Compound concentration 10.0 uM
[22] = target: Muscarinic acetylcholine receptor M3 (Homo sapiens) (UniProt P20309); conditions: Compound concentration 10.0 uM
Muscarinic acetylcholine receptor M3 (Homo sapiens), sequence (P20309 whole entry, looked up): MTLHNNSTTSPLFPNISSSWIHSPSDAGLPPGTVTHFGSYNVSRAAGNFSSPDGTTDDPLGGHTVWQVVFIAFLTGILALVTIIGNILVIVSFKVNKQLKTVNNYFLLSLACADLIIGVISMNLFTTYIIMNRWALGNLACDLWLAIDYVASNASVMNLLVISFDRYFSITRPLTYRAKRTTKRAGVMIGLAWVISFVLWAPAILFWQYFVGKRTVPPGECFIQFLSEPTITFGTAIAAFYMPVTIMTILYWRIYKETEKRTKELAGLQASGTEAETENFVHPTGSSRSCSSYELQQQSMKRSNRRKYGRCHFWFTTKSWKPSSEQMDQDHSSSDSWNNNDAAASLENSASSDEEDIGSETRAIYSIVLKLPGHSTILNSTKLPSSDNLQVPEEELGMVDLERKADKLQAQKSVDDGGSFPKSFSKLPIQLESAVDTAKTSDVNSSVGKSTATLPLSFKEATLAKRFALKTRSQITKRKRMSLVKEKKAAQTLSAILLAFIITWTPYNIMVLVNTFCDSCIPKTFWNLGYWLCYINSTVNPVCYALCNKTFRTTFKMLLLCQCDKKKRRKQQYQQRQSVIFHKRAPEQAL

[23] = target: 5-hydroxytryptamine receptor 1B (Homo sapiens, UniProt P28222); conditions: Compound concentration 10.0 uM
[24] = target: 5-hydroxytryptamine receptor 1A (Homo sapiens) (UniProt P08908); conditions: Compound concentration 10.0 uM
[25] = target: Sodium-dependent dopamine transporter (Homo sapiens, UniProt Q01959); conditions: Compound concentration 10.0 uM
Sodium-dependent dopamine transporter, sequence (Q01959 whole entry): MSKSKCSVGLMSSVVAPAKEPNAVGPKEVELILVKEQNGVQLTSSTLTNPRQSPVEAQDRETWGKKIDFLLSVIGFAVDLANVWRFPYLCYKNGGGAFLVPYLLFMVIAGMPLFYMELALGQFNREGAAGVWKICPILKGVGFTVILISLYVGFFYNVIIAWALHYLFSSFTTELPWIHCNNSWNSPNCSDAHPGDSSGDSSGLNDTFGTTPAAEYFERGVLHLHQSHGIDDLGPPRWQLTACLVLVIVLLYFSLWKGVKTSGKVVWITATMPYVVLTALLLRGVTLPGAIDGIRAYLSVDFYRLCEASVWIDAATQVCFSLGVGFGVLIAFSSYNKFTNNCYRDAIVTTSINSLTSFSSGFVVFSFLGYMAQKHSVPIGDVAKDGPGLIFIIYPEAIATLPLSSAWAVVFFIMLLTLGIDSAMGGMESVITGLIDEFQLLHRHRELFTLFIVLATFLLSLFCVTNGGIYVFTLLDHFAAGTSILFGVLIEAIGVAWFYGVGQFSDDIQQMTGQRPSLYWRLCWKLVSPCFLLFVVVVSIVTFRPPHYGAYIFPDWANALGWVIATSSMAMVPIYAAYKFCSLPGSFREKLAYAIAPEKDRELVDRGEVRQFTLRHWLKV

[26] = target: T1, Kappa-type opioid receptor; conditions: Compound concentration 10.0 uM
[27] = target: Alpha-1D adrenergic receptor (Homo sapiens) (UniProt P25100); conditions: Compound concentration 10.0 uM
[28] = target: Muscarinic acetylcholine receptor M5 (Homo sapiens) (UniProt P08912); conditions: Compound concentration 10.0 uM
[29] = target: D(1B) dopamine receptor (Homo sapiens) (UniProt P21918); conditions: Compound concentration 10.0 uM
[30] = target: D(1A) dopamine receptor (Homo sapiens) (UniProt P21728); conditions: Compound concentration 10.0 uM
[31] = target: Alpha-1B adrenergic receptor (Homo sapiens) (UniProt P35368); conditions: Compound concentration 10.0 uM
[32] = target: Alpha-1A adrenergic receptor (Homo sapiens) (UniProt P35348); conditions: Compound concentration 10.0 uM
[33] = target: Mu-type opioid receptor (Homo sapiens) (UniProt P35372); conditions: Compound concentration 10.0 uM
Mu-type opioid receptor (Homo sapiens), sequence (P35372 whole entry): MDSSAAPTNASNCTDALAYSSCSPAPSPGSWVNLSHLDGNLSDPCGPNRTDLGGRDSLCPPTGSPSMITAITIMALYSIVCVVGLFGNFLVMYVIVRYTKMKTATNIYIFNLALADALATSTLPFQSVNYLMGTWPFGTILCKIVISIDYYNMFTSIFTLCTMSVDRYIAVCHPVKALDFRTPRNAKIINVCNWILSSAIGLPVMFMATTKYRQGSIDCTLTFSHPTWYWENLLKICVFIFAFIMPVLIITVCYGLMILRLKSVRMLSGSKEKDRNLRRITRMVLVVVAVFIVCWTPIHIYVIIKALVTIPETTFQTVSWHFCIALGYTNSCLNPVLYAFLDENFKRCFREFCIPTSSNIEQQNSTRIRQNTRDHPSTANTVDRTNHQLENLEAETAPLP

[34] = target: Peroxisomal N(1)-acetyl-spermine/spermidine oxidase (Homo sapiens, UniProt Q6QHF9); assay: HyPerBlu POAX enzymatic assay
[35] = target: Muscarinic acetylcholine receptor M1 (Homo sapiens) (UniProt P11229); conditions: Compound concentration 10.0 uM
Muscarinic acetylcholine receptor M1 (Homo sapiens), sequence (P11229 whole entry): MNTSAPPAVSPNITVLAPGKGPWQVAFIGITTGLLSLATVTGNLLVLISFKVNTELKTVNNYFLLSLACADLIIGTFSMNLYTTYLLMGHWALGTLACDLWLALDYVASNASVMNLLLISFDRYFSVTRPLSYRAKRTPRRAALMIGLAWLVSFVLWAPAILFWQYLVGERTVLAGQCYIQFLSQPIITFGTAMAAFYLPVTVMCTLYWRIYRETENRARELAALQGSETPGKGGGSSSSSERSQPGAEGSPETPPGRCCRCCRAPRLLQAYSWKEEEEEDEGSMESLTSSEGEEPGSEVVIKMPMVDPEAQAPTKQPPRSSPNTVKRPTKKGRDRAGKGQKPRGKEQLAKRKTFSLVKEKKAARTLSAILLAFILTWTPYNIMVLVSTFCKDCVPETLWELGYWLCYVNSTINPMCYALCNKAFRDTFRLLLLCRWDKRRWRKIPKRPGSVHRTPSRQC

[36] = target: T2, Muscarinic acetylcholine receptor M4 (Homo sapiens) (UniProt P08173); conditions: Compound concentration 10.0 uM
T2 sequence (whole entry): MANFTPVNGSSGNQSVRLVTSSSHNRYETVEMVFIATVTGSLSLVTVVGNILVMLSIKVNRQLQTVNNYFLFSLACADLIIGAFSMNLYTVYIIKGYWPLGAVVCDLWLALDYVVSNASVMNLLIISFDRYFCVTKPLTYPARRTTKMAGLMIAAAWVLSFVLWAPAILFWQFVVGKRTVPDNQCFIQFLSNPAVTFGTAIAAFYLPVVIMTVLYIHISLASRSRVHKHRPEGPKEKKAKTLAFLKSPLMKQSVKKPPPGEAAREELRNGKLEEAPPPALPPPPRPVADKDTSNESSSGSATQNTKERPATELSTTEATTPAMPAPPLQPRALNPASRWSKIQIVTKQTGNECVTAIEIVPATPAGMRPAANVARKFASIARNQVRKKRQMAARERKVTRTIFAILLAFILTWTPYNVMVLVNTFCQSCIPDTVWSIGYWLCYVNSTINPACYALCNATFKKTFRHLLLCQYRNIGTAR

[37] = GPCRScan assay: inhibition of GABA/PBR; design: species or system Rattus norvegicus; radioligand conc. used [nm] 0.3 – 2.0, parental cells brain tissue
[38] = target: D(4) dopamine receptor (Homo sapiens) (UniProt P21917); conditions: Compound concentration 10.0 uM
[39] = target: Alpha-2A adrenergic receptor (Homo sapiens) (UniProt P08913); conditions: Compound concentration 10.0 uM
[40] = target: Histamine H4 receptor (Homo sapiens) (UniProt Q9H3N8); conditions: Compound concentration 10.0 uM

T1 sequence (P41145 whole entry): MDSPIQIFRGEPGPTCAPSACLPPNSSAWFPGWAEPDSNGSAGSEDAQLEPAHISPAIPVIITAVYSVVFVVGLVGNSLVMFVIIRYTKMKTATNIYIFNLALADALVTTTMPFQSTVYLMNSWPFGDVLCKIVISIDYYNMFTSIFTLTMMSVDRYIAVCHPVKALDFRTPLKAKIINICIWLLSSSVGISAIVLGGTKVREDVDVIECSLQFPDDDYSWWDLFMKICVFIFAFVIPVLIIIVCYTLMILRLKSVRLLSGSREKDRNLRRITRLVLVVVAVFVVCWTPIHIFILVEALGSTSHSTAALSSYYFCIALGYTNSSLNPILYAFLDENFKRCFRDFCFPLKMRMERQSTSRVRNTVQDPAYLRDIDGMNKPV

## CC(=O)Nc1ccc(-c2cc(-c3ccccc3)nc3cc(C(=O)NCCCn4ccnc4)nn23)cc1
[1]
  Ki: 198 nM
[2]
  inhibition: 10.8%
[3]
  inhibition: 21.2%
[4]
  inhibition: 17.5%
[5]
  inhibition: 6.04%
[6]
  inhibition: 49.3%
[7]
  inhibition: 15.1%
[8]
  inhibition: 0.12%
[9]
  inhibition: 48.5%
D(3) dopamine receptor
  inhibition: 90%
[10]
  inhibition: 14.9%
[11]
  inhibition: 49.4%
[12]
  inhibition: 17.8%
[13]
  inhibition: 10.8%
[14]
  inhibition: 7.86%
[15]
  inhibition: -5.81%
[16]
  inhibition: 46.1%
[17]
  inhibition: 16.2%
Rattus norvegicus
  inhibition: 96.6%
[18]
  inhibition: -7.96%
[19]
  inhibition: 4.27%
[20]
  inhibition: 32.2%
[21]
  inhibition: 6.76%
[22]
  inhibition: 33.5%
[23]
  inhibition: 38.4%
[24]
  inhibition: 16.5%
[25]
  inhibition: 79.9%
[26]
  inhibition: 90.7%
[27]
  inhibition: 39.3%
[28]
  inhibition: 30.3%
[29]
  inhibition: 15%
[30]
  inhibition: 22.7%
[31]
  inhibition: 75.3%
[32]
  inhibition: -7.41%
[33]
  inhibition: 25.4%
[34]
  IC50: 2100 nM (not active)
[35]
  inhibition: 18.5%
[36]
  inhibition: 51.6%
[37]
  Ki: 306 nM
  pKi: 6.51
[38]
  inhibition: 89.3%
[39]
  inhibition: 28.1%
[40]
  inhibition: 27.9%

## O=C(NCCCn1ccnc1)c1cc2nc(-c3ccccc3)cc(-c3ccccc3)n2n1
[1]
  Ki: 1170 nM
[2]
  inhibition: 26.9%
[3]
  inhibition: 30.5%
[4]
  inhibition: 57.9%
[5]
  inhibition: -7.55%
[6]
  inhibition: 17.1%
[7]
  inhibition: 0.95%
[8]
  inhibition: 8.26%
[9]
  inhibition: 101%
D(3) dopamine receptor
  inhibition: 40.5%
[10]
  inhibition: 4.87%
[11]
  inhibition: 46%
[12]
  inhibition: 27.4%
[13]
  inhibition: 42.2%
[14]
  inhibition: 28.4%
[15]
  inhibition: -7.92%
[16]
  inhibition: 24.3%
[17]
  inhibition: 25.6%
Rattus norvegicus
  inhibition: 114%
[18]
  inhibition: -4.5%
[19]
  inhibition: 2.96%
[20]
  inhibition: 25.3%
[21]
  inhibition: 17.5%
[22]
  inhibition: 32%
[23]
  inhibition: 104%
[24]
  inhibition: 13.1%
[25]
  inhibition: 47.7%
[26]
  inhibition: 73.3%
[27]
  inhibition: 28.1%
[28]
  inhibition: 37.9%
[29]
  inhibition: 20.4%
[30]
  inhibition: 28.9%
[31]
  inhibition: 10.2%
[32]
  inhibition: 3.52%
[33]
  inhibition: 24.8%
[34]
  IC50: 790 nM (not active)
[35]
  inhibition: 24.8%
[36]
  inhibition: 36.6%
[37]
  Ki: 498 nM
  pKi: 6.3
[38]
  inhibition: 20.9%
[39]
  inhibition: 64%
[40]
  inhibition: 32.6%

From ChEMBL document CHEMBL5058647, “Data for DCP probe JNJ-9350” (2022)
